Assay results from US20130267551A1, “SUBSTITUTED HYDROGENATED THIENO-PYRROLO[3,2-C]PYRIDINE, LIGANDS, A PHARMACEUTICAL COMPOSITION AND A METHOD FOR USING THE ABOVE” (ALLA CHEM, LLC, priority 2010, published 2013).
Where a name gives a salt, the structure may show the parent alone.

Experiments:
Dopaminergic D1 = Dopaminergic D1 (Homo sapiens, UniProt P21728); experiment: competitive radioligand binding, Dopaminergic D1; details: compound concentration of 1 μM
Description: (§1) Profiles of pharmacological activity of thieno-pyrrolo[3,2-c]pyridines of the general formula 1. Biological activity test of compounds of the general formula 1 was carried out in the setting of competitive radioligand binding [I. Okun, S. Tkachenko, A. Khvat, et al., Current Alzheimer Research, 7(2), 97-112 (2010)], using a wide range of therapeutic targets including G-protein coupled receptors (GPCR), ion channels and neuromediator transporters. The tested activity was determined by quantitative measurement of radio-labelled ligand displacement by tested compounds of the general formula 1 at their concentration of 1 μM.

Serotoninergic 5-HT2A = Serotoninergic 5-HT2A (Homo sapiens, UniProt P28223); experiment: competitive radioligand binding, Serotoninergic 5-HT2A; details: compound concentration of 1 μM
Sequence of Serotoninergic 5-HT2A (P28223 whole entry): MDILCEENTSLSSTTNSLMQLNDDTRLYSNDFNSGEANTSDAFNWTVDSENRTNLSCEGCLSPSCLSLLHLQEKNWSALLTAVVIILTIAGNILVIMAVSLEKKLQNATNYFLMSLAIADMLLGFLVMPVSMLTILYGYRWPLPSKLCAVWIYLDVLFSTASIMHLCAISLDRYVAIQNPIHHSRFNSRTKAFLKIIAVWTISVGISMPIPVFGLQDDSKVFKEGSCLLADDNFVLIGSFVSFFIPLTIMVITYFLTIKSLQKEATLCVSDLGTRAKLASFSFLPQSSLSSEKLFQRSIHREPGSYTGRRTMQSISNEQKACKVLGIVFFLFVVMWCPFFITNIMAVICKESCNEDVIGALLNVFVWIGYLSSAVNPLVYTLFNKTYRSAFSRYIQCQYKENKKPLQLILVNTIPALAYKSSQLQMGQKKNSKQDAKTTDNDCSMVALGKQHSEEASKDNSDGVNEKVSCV
Description: as §1

Serotoninergic 5-HT2B = Serotoninergic 5-HT2B (Homo sapiens, UniProt P41595); experiment: competitive radioligand binding, Serotoninergic 5-HT2B; details: compound concentration of 1 μM
Sequence of Serotoninergic 5-HT2B (P41595 whole entry): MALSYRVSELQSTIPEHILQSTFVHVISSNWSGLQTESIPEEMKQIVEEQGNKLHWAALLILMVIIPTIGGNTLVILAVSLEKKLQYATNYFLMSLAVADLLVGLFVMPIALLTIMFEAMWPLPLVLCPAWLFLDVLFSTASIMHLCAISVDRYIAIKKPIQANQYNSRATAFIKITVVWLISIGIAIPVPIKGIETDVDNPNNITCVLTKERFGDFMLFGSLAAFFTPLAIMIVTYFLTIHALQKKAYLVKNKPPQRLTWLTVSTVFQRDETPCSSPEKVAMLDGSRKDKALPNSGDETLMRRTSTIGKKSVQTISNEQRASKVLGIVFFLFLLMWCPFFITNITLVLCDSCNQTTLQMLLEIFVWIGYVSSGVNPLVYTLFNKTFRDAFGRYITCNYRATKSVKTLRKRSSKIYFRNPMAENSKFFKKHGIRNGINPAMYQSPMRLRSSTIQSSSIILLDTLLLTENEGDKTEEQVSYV
Description: as §1

Dopaminergic D2L = Dopaminergic D2L (Homo sapiens, UniProt P14416); experiment: competitive radioligand binding, Dopaminergic D2L; details: compound concentration of 1 μM
Sequence of Dopaminergic D2L (P14416 whole entry): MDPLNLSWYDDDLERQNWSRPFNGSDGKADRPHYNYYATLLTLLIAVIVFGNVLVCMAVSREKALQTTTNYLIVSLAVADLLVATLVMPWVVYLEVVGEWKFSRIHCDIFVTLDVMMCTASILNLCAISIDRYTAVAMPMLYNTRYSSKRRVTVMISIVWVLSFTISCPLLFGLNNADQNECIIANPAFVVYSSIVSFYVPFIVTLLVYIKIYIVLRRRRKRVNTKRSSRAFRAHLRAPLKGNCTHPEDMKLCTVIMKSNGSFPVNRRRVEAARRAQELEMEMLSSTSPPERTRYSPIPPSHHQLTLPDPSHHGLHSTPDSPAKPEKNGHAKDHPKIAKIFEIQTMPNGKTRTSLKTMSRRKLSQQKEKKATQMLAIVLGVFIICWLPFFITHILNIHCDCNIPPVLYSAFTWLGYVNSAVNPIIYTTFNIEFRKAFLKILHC
Description: as §1

Dopaminergic D3 = Dopaminergic D3 (Homo sapiens, UniProt P35462); experiment: competitive radioligand binding, Dopaminergic D3; details: compound concentration of 1 μM
Sequence of Dopaminergic D3 (P35462 whole entry): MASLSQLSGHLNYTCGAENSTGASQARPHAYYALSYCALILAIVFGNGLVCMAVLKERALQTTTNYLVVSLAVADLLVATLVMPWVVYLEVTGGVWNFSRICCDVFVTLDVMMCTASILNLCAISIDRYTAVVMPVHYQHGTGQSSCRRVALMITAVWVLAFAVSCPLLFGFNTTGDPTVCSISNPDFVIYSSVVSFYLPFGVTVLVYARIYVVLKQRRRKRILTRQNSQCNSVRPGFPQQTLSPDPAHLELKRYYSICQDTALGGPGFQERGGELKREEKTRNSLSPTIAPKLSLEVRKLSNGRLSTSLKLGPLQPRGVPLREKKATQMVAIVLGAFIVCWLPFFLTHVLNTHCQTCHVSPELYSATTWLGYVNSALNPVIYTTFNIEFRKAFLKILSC
Description: as §1

Serotoninergic 5-HT1B = experiment: competitive radioligand binding, Serotoninergic 5-HT1B; details: compound concentration of 1 μM
Description: as §1

Serotoninergic 5-HT2C = target: T1, Serotoninergic 5-HT2C (Homo sapiens, UniProt P28335); experiment: competitive radioligand binding, Serotoninergic 5-HT2C; details: compound concentration of 1 μM
T1 sequence (P28335 33-458): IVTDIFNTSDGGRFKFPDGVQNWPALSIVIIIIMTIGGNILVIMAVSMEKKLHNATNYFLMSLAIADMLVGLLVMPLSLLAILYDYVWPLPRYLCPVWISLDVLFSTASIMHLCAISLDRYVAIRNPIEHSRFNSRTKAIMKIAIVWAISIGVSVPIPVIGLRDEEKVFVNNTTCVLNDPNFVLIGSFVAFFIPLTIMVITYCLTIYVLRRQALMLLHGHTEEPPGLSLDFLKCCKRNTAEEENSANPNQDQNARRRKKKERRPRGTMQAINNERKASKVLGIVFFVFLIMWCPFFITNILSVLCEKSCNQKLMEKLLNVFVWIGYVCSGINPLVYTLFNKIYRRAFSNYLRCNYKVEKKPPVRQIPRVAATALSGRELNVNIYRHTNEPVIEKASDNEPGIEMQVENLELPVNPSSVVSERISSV
Description: as §1

Dopaminergic D2S = Dopaminergic D2S (Homo sapiens, UniProt P14416); experiment: competitive radioligand binding, Dopaminergic D2S; details: compound concentration of 1 μM
Sequence of Dopaminergic D2S (P14416 1-414 isoform P14416-2): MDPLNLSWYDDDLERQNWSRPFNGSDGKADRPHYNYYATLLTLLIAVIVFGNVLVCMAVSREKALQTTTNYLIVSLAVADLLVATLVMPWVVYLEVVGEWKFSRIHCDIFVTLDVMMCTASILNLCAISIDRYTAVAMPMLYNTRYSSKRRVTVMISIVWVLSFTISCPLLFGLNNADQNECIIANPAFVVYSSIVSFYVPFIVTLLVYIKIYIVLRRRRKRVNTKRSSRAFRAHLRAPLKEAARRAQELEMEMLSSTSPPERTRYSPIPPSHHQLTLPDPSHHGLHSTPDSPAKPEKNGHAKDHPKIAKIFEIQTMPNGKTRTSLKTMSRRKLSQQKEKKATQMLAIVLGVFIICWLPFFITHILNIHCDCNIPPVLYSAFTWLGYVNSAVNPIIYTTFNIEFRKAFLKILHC
Description: as §1

[1] = test system: Therapeutic targets (Adrenergic, Dopaminergic, Histaminergic, Serotoninergic); experiment: Profiles of pharmacological activity in competitive radioligand binding (whole panel); details: 1 μM, grades not defined
Description: as §1

Adrenergic α1D = target: T2, Adrenergic α1D (Homo sapiens, UniProt P25100); experiment: competitive radioligand binding, Adrenergic α1D; details: compound concentration of 1 μM
T2 sequence (P25100 1-572): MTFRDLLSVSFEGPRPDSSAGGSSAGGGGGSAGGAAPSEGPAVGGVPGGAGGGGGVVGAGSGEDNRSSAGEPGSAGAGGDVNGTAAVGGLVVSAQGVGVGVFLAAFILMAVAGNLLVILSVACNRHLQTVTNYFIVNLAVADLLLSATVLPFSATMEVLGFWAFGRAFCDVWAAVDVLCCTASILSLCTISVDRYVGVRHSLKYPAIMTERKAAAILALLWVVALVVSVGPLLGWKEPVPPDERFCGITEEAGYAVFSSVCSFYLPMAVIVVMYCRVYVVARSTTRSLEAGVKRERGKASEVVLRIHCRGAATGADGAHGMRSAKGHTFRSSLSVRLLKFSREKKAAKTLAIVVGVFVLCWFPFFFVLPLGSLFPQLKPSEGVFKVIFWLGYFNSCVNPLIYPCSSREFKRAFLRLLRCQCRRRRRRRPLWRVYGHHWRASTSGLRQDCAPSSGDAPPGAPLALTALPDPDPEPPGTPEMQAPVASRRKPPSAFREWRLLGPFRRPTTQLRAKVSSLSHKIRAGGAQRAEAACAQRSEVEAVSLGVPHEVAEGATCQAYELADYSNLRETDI
Description: as §1

Adrenergic α1B = experiment: competitive radioligand binding, Adrenergic α1B; details: compound concentration of 1 μM
Description: as §1

Serotoninergic 5-HT7 = Serotoninergic 5-HT7 (Homo sapiens, UniProt P34969); experiment: competitive radioligand binding, Serotoninergic 5-HT7; details: compound concentration of 1 μM
Sequence of Serotoninergic 5-HT7 (P34969 whole entry): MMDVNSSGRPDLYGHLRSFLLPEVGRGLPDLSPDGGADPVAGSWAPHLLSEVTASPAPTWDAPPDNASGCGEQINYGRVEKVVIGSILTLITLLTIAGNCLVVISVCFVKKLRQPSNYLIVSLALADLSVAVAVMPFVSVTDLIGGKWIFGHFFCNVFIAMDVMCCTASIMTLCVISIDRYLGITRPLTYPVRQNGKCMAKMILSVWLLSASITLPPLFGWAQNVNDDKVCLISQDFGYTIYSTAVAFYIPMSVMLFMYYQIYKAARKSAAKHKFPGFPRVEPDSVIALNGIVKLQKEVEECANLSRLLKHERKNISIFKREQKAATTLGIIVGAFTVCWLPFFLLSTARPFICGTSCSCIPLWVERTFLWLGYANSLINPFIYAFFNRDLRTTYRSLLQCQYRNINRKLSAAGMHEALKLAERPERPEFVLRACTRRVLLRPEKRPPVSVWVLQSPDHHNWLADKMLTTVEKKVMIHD
Description: as §1

Histaminergic H3 = Histaminergic H3 (Homo sapiens, UniProt Q9Y5N1); experiment: competitive radioligand binding, Histaminergic H3; details: compound concentration of 1 μM; in % (unit assumed)
Sequence of Histaminergic H3 (Q9Y5N1 whole entry): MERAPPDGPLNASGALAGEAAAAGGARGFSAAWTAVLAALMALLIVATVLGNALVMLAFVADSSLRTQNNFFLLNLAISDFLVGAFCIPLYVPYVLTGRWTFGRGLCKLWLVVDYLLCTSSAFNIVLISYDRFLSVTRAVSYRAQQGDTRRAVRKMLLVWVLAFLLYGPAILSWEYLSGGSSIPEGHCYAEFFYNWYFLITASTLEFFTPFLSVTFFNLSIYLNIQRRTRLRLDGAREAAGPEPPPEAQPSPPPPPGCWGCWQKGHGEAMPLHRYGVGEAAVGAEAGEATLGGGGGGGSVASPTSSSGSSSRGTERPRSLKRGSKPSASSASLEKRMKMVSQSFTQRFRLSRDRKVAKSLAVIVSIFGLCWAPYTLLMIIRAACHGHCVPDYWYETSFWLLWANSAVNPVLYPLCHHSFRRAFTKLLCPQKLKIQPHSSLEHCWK
Description: as §1

Dopaminergic D4.2 = target: T3, Dopaminergic D4.2 (Homo sapiens, UniProt P21917, DEL265-296); experiment: competitive radioligand binding, Dopaminergic D4.2; details: compound concentration of 1 μM
T3 sequence (P21917 with tags, fused parts or gaps DEL265-296): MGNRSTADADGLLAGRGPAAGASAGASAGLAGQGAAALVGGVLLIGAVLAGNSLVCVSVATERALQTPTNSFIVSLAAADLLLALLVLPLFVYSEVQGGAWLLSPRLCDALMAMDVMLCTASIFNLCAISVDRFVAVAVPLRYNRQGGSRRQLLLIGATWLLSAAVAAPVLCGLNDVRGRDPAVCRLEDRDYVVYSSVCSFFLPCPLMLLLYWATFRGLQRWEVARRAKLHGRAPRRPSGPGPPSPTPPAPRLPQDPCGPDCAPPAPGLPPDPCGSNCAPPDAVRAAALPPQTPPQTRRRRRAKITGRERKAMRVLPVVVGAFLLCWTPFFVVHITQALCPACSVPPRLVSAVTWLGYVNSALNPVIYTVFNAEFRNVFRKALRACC
Description: as §1

Histaminergic H1 = Histaminergic H1 (Homo sapiens, UniProt P35367); experiment: competitive radioligand binding, Histaminergic H1; details: compound concentration of 1 μM
Sequence of Histaminergic H1 (P35367 whole entry): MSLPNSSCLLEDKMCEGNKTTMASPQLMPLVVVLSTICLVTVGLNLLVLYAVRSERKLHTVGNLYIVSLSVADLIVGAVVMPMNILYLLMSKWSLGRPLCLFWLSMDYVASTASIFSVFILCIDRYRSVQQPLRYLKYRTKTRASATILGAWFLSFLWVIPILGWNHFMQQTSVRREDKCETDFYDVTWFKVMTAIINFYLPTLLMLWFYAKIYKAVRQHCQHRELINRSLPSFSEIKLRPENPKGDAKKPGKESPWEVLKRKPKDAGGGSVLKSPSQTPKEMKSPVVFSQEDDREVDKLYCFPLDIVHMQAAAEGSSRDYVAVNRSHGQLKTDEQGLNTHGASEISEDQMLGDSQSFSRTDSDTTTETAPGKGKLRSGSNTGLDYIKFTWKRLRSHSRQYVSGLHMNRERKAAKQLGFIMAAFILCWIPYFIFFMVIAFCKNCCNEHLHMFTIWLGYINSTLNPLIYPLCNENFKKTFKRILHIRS
Description: as §1

Histaminergic H2 = Histaminergic H2 (Homo sapiens, UniProt P25021); experiment: competitive radioligand binding, Histaminergic H2; details: compound concentration of 1 μM
Sequence of Histaminergic H2 (P25021 whole entry): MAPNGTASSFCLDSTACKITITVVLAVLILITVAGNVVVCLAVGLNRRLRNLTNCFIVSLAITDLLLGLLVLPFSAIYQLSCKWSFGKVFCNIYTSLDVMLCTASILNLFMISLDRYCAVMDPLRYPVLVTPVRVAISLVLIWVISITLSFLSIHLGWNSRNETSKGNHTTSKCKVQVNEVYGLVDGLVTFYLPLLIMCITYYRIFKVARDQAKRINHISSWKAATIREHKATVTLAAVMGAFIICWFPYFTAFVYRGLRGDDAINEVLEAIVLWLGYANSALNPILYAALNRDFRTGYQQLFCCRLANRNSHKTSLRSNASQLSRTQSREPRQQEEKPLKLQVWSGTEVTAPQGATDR
Description: as §1

Adrenergic α1A = experiment: competitive radioligand binding, Adrenergic α1A; details: compound concentration of 1 μM
Description: as §1

Adrenergic α2A = target: T4, Adrenergic α2A (Homo sapiens, UniProt P08913); experiment: competitive radioligand binding, Adrenergic α2A; details: compound concentration of 1 μM
T4 sequence (P08913 1-465): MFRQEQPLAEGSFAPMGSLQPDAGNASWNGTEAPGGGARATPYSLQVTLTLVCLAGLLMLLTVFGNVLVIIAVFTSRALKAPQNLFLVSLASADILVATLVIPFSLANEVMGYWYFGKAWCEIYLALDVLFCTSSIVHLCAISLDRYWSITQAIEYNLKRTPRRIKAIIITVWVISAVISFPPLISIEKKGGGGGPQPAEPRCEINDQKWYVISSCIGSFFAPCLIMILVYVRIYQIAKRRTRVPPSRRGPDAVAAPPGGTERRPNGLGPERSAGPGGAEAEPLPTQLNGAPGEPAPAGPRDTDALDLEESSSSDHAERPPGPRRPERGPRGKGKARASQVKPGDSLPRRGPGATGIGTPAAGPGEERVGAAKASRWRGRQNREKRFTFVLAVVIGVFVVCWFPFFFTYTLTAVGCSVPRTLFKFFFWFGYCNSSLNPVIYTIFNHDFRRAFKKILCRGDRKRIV
Description: as §1

Serotoninergic 5-HT6 = Serotoninergic 5-HT6 (Homo sapiens, UniProt P50406); experiment: competitive radioligand binding, Serotoninergic 5-HT6; details: compound concentration of 1 μM
Sequence of Serotoninergic 5-HT6 (P50406 whole entry): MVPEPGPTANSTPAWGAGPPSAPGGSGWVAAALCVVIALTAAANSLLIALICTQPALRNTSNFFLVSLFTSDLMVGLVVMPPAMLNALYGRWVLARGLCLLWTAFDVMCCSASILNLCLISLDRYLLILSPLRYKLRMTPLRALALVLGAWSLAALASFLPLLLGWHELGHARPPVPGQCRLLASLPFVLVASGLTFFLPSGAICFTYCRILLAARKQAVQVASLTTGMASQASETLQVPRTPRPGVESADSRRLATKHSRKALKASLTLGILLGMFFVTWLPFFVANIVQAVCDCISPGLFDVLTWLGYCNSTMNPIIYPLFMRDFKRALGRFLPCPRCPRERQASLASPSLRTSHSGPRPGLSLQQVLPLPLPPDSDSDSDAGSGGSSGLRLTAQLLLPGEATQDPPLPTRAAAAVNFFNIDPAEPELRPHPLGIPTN
Description: as §1

Serotoninergic 5-HT1A = target: T5, Serotoninergic 5-HT1A (Homo sapiens, UniProt P08908); experiment: competitive radioligand binding, Serotoninergic 5-HT1A; details: compound concentration of 1 μM
T5 sequence (P08908 1-422): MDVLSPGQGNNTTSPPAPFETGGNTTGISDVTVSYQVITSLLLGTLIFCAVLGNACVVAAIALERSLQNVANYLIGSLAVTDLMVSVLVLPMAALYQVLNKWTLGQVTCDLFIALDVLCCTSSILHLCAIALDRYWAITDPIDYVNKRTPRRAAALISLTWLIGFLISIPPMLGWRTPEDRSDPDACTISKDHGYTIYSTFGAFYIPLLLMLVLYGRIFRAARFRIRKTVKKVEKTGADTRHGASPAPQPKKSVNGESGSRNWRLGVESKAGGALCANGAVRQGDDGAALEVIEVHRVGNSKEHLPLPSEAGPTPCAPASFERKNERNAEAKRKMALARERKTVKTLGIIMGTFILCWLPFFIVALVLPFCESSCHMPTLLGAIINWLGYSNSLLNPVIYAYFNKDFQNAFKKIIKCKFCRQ
Description: as §1

Mice of SHK line = experiment: Prepulse inhibition of startle response in mice (Apomorphine); details: 1 mg/kg, intraperitoneally 60 minutes before the test

Sequence of Dopaminergic D1 (P21728 whole entry): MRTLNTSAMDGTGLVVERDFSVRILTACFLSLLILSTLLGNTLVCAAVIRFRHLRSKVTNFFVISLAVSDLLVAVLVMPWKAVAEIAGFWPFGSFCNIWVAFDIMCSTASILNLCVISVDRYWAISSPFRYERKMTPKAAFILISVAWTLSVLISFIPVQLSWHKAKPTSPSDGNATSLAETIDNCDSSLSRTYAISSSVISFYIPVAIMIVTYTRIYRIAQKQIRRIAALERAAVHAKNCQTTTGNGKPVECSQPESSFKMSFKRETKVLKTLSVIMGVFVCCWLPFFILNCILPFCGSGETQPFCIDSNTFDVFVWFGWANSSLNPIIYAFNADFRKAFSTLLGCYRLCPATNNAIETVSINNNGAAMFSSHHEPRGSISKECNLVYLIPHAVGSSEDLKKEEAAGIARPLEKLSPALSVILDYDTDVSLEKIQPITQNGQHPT

SMILES	radio-labelled ligand displacement, Dopaminergic D1 (Dopaminergic D1)	radio-labelled ligand displacement, Serotoninergic 5-HT2A (Serotoninergic 5-HT2A)	radio-labelled ligand displacement, Serotoninergic 5-HT2B (Serotoninergic 5-HT2B)	radio-labelled ligand displacement, Dopaminergic D2L (Dopaminergic D2L)	radio-labelled ligand displacement, Dopaminergic D3 (Dopaminergic D3)	radio-labelled ligand displacement, Serotoninergic 5-HT1B (Serotoninergic 5-HT1B)	radio-labelled ligand displacement, Serotoninergic 5-HT2C (Serotoninergic 5-HT2C)	radio-labelled ligand displacement, Dopaminergic D2S (Dopaminergic D2S)	grade of the activity profile (poor / satisfactory / good) [1]	radio-labelled ligand displacement, Adrenergic α1D (Adrenergic α1D)	radio-labelled ligand displacement, Adrenergic α1B (Adrenergic α1B)	radio-labelled ligand displacement, Serotoninergic 5-HT7 (Serotoninergic 5-HT7)	radio-labelled ligand displacement, Histaminergic H3 (Histaminergic H3)	radio-labelled ligand displacement, Dopaminergic D4.2 (Dopaminergic D4.2)	radio-labelled ligand displacement, Histaminergic H1 (Histaminergic H1)	radio-labelled ligand displacement, Histaminergic H2 (Histaminergic H2)	radio-labelled ligand displacement, Adrenergic α1A (Adrenergic α1A)	radio-labelled ligand displacement, Adrenergic α2A (Adrenergic α2A)	radio-labelled ligand displacement, Serotoninergic 5-HT6 (Serotoninergic 5-HT6)	radio-labelled ligand displacement, Serotoninergic 5-HT1A (Serotoninergic 5-HT1A)	other results
Cc1ccc(CCCn2c3c(c4c(Cl)csc42)CN(C)CC3)cc1 [3.12(5)•HCl, 5-methyl-8-[(p-tolyl)propyl]-3-chloro-4,5,6,7-tetrahydro-5H-thieno[3′,2′:4,5]pyrrolo[3,2-c]pyridine]	47%	97%	63%	35%	23%	30%	94%	29%	good	86%	89%	96%	−3	33%	89%	57%	79%	91%	99%	18%	
O=C(CCCN1CCC(O)(c2ccc(Cl)cc2)CC1)c1ccc(F)cc1 [Haloperidol, reference compound]																					Antipsychotic activity: disturbance of prepulse inhibition of startle caused by Apomorphine (Mice of SHK line): prevented disturbance of prepulse inhibition of startle caused by Apomorphine
Cc1cc2c3c(n(CCc4ccc(Cl)cc4)c2s1)C(C)CN(C)C3 (centres unmarked) [3.6(4)•HCl, 2,5,7-trimethyl-8-(4-chlorophenethyl)-4,5,6,7-tetrahydro-5H-thieno[3′,2′:4,5]pyrrolo[3,2-c]pyridine]	56%	97%	78%	45%	63%	41%	96%	72%	good	89%	91%	99%	8	54%	95%	63%	89%	93%	99%	29%	
